The values that follow come from patent publication US20250388604A1, “Compounds and Their Use as PDE4 Activators” (Mironid Limited, priority 2022, published 2025).

For one experiment, the system named is m-IMCD3 cells. Kind of experiment: Inhibition of PGE2-stimulated in vitro cyst formation in m-IMCD3 cells. The experiment is classed as cell-based, mouse. Particulars: Mus musculus, mIMCD3, 144 h, mean cyst area, 100% for (DMSO + PGE2) and 0% for DMSO control, 6 days of culture; for activity at 3 µM: read-out: % Cyst area after incubation with 3 μM test compound; for activity at 10 µM: read-out: % Cyst area after incubation with 10 μM test compound. In outline:
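Mean cyst area after 6 days, expressed relative to DMSO+PGE2 (100%) and DMSO alone (0%), from z-stack images. Mouse m-IMCD3 spheroids grew in collagen I/Matrigel gels and received PGE2 (100 nM final) with test compound (0.1% DMSO) starting 18–24 h post-plating, media refreshed at day 2 or 3.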

For experiment [1], the system named is m-IMCD3 cells expressing PDE4 long forms. Kind of experiment: cAMP levels in PGE2-stimulated 3D m-IMCD3 cell culture media. It is filed as cell-based. Particulars: Mus musculus, mIMCD3, compared to 100% for (DMSO + PGE2), read-out: cAMP level (% of PGE2-stimulated); for activity at 3 µM: 3 μM test compound. The protocol:
HEK 293 and MDCK cells (Public Health England, Cell Culture Collections) were maintained in Dulbecco's Modified Eagle's Medium (DMEM) supplemented with 10% (v/v) fetal bovine serum (FBS) (Seralab), 2 mM L-glutamine and 100 U/mL penicillin streptomycin cocktail (ThermoFisher); termed complete media. Clonal HEK 293 cell lines were maintained in complete media supplemented with 0.6 mg/ml G418 (Enzo Life Sciences). Mouse inner medullary collecting duct (m-IMCD3) cells [American Type Culture Collection (ATCC)] were maintained in media consisting of DMEM/Hams F-12 50/50 Mix (DMEM F12; Corning) supplemented with penicillin streptomycin cocktail (100 U/mL) and FBS (10% v/v) (DMEM F12-10% FBS).
Activation of intracellular PDE4 long forms leads to a reduction of both intracellular cAMP and externalised cAMP (Omar et al., PNAS 116: 13320-13329, 2019). This reduction may be measured in the cell culture media supernatant of 3D cystic cell cultures, such as in the m-IMCD3 cell cyst suppression assay described in Experiment 3.
Following the completion of the m-IMCD3 cell cyst suppression assay (Experiment 3), the cAMP level in the assay media from individual or pooled assay wells was measured using a cAMP ELISA kit (Enzo Life Sciences) or a LANCE Ultra cAMP kit (PerkinElmer) according to the manufacturer's instructions.
For orientation: cAMP levels reflect the balance of adenylyl cyclase and phosphodiesterase activity.

Consider `CCN1CC2CCC(C1)N2c1nc2c(s1)CN(C(=O)CC1CCCC1)CC2` [Example 291, 2-cyclopentyl-1-(2-(3-ethyl-3,8-diazabicyclo[3.2.1]octan-8-yl)-6,7-dihydrothiazolo[5,4-c]pyridin-5(4H)-yl)ethan-1-one], for which the activity at 3 µM in the experiment with m-IMCD3 cells is 3%; in experiment [1], 45%.

For the compound `O=C(CC1CCCC1)N1CCc2nc(N3C[C@@H]4C[C@H]3CN4)sc2C1` [Example 277, 1-(2-((1S,4S)-2,5-diazabicyclo[2.2.1]heptan-2-yl)-6,7-dihydrothiazolo[5,4-c]pyridin-5(4H)-yl)-2-cyclopentylethan-1-one], the activity at 3 µM with m-IMCD3 cells stood at 6%; in experiment [1], 42%.

`CCN1CC2CCC(C1)N2c1nc2c(s1)CN(S(=O)(=O)Cc1ccc(F)cc1)CC2` [Example 286, 2-(3-ethyl-3,8-diazabicyclo[3.2.1]octan-8-yl)-5-((4-fluorobenzyl)sulfonyl)-4,5,6,7-tetrahydrothiazolo[5,4-c]pyridine]: the activity at 3 µM in the experiment on m-IMCD3 cells is -2%; in experiment [1], 52%.

For `O=C(CC1CCCC1)N1CCc2nc(N3CC4CCC(C3)N4)sc2C1` [Example 276, 1-(2-(3,8-diazabicyclo[3.2.1]octan-3-yl)-6,7-dihydrothiazolo[5,4-c]pyridin-5(4H)-yl)-2-cyclopentylethan-1-one], the activity at 3 µM turned out to be 13% in the experiment with m-IMCD3 cells and 41% in experiment [1].

Regarding `CC(C)C(=O)N1Cc2sc(N3C4CCC3CNC4)nc2CC1(C)C` [Example 268, 1-(2-(3,8-diazabicyclo[3.2.1]octan-8-yl)-6,6-dimethyl-6,7-dihydrothiazolo[5,4-c]pyridin-5(4H)-yl)-2-methylpropan-1-one], the activity at 3 µM in the experiment with m-IMCD3 cells was found to be 1%; in experiment [1], 39%.

As for `O=C(N1CCn2nc(N3C4CCC3CNC4)cc2C1)C(F)(F)c1ccccc1` [Example 126, 1-(2-(3,8-diazabicyclo[3.2.1]octan-8-yl)-6,7-dihydropyrazolo[1,5-a]pyrazin-5(4H)-yl)-2,2-difluoro-2-phenylethan-1-one], the activity at 10 µM with m-IMCD3 cells is -10%. In addition, the activity at 3 µM in experiment [1] stood at 39%.

As for `O=C(CC1CCCC1)N1CCc2nc(N3C[C@H]4C[C@@H]3CN4)sc2C1` [Example 279, 1-(2-((1R,4R)-2,5-diazabicyclo[2.2.1]heptan-2-yl)-6,7-dihydrothiazolo[5,4-c]pyridin-5(4H)-yl)-2-cyclopentylethan-1-one], the results for the activity at 3 µM (in the experiment on m-IMCD3 cells; in experiment [1]) were 19% and 27%, respectively.

In the case of `CC(C)N1CC2CCC(C1)N2c1nc2c(s1)CN(C(=O)CC1CCCC1)CC2` [Example 290, 2-cyclopentyl-1-(2-(3-isopropyl-3,8-diazabicyclo[3.2.1]octan-8-yl)-6,7-dihydrothiazolo[5,4-c]pyridin-5(4H)-yl)ethan-1-one], the figures for the activity at 3 µM (with m-IMCD3 cells; in experiment [1]) were -9% and 35%, respectively.

With `CC(C)N1CC2CCC(C1)N2c1nc2c(s1)CN(C(=O)COc1ccc(F)cc1)CC2` [Example 298, 2-(4-fluorophenoxy)-1-(2-(3-isopropyl-3,8-diazabicyclo[3.2.1]octan-8-yl)-6,7-dihydrothiazolo[5,4-c]pyridin-5(4H)-yl)ethan-1-one], the activity at 3 µM was -7% in the experiment on m-IMCD3 cells and 48% in experiment [1].

For `O=C(OC1CCCC1)N1CCc2nc(N3C4CCC3CNC4)sc2C1` [Example 244, cyclopentyl 2-(3,8-diazabicyclo[3.2.1]octan-8-yl)-6,7-dihydrothiazolo[5,4-c]pyridine-5(4H)-carboxylate], the values for the activity at 3 µM (in the experiment with m-IMCD3 cells; in experiment [1]) were 6% and 40%, respectively.

Take `CCN1CCN(c2nc3c(s2)CN(C(=O)N[C@H]2CCOc4ccccc42)CC3)CC1` [Example 297, (S)—N-(chroman-4-yl)-2-(4-ethylpiperazin-1-yl)-6,7-dihydrothiazolo[5,4-c]pyridine-5(4H)-carboxamide]: the activity at 3 µM came to 9% with m-IMCD3 cells and 45% in experiment [1].

On to `CCN1CC2CCC(C1)N2c1nc2c(s1)CN(C(=O)COc1ccc(F)cc1)CC2` [Example 302, 1-(2-(3-ethyl-3,8-diazabicyclo[3.2.1]octan-8-yl)-6,7-dihydrothiazolo[5,4-c]pyridin-5(4H)-yl)-2-(4-fluorophenoxy)ethan-1-one], for which the activity at 3 µM stood at 5% in the experiment with m-IMCD3 cells and 48% in experiment [1].

With `O=C(CC1CCCC1)N1CCn2nc(N3C4CCC3CNC4)cc2C1` [Example 127, 1-(2-(3,8-diazabicyclo[3.2.1]octan-8-yl)-6,7-dihydropyrazolo[1,5-a]pyrazin-5(4H)-yl)-2-cyclopentylethan-1-one], the activity at 10 µM with m-IMCD3 cells is 3%. In addition, the activity at 3 µM in experiment [1] is 42%.

Take `O=C(CC1CCCC1)N1CCc2sc(N3C4CCC3CNC4)nc2C1` [Example 281, 1-(2-(3,8-diazabicyclo[3.2.1]octan-8-yl)-6,7-dihydrothiazolo[4,5-c]pyridin-5(4H)-yl)-2-cyclopentylethan-1-one]: the activity at 3 µM is -9% with m-IMCD3 cells and 51% in experiment [1].

With `CC1(C)CN(C(=O)CC2CCC3(CC2)COC3)Cc2sc(N3C4CCC3CNC4)nc21` [Example 260, 1-(2-(3,8-diazabicyclo[3.2.1]octan-8-yl)-7,7-dimethyl-6,7-dihydrothiazolo[5,4-c]pyridin-5(4H)-yl)-2-(2-oxaspiro[3.5]nonan-7-yl)ethan-1-one], the activity at 3 µM with m-IMCD3 cells turned out to be 10%; in experiment [1], 52%.

For `O=C(CC1CCCC1)N1CCc2nc(N3C4CCC3CNC4)sc2C1` [Example 1, 1-(2-(3,8-diazabicyclo[3.2.1]octan-8-yl)-6,7-dihydrothiazolo[5,4-c]pyridin-5(4H)-yl)-2-cyclopentylethan-1-one], the activity at 10 µM with m-IMCD3 cells was -5%; in experiment [1] (10 μM test compound) it was 14%.

Turning to `O=C(C1COc2ccccc21)N1CCc2nc(N3C4CCC3CNC4)sc2C1` (stereo not shown) [Example 184, (2-(3,8-diazabicyclo[3.2.1]octan-8-yl)-6,7-dihydrothiazolo[5,4-c]pyridin-5(4H)-yl)(2,3-dihydrobenzofuran-3-yl)methanone], the figures for the activity at 3 µM (with m-IMCD3 cells; in experiment [1]) were 15% and 58%, respectively.

Take `CCN1CC2CCC(C1)N2c1nc2c(s1)CN(C(=O)N[C@H]1CCOc3ccccc31)CC2` [Example 294, N—((S)-chroman-4-yl)-2-(3-ethyl-3,8-diazabicyclo[3.2.1]octan-8-yl)-6,7-dihydrothiazolo[5,4-c]pyridine-5(4H)-carboxamide]: the results for the activity at 3 µM (in the experiment with m-IMCD3 cells; in experiment [1]) were -5% and 39%, respectively.

`O=C([C@H](O)C1CCCC1)N1CCc2nc(N3C4CCC3CNC4)sc2C1` [Example 171, (2R)-1-(2-(3,8-diazabicyclo[3.2.1]octan-8-yl)-6,7-dihydrothiazolo[5,4-c]pyridin-5(4H)-yl)-2-cyclopentyl-2-hydroxyethan-1-one]: the activity at 3 µM in the experiment on m-IMCD3 cells amounted to 6%; in experiment [1] it was 56%.

Take `CCN1CC2CCC(C1)N2c1nc2c(s1)CN(C(=O)NCc1ccc(F)cc1)CC2` [Example 300, 2-(3-ethyl-3,8-diazabicyclo[3.2.1]octan-8-yl)-N-(4-fluorobenzyl)-6,7-dihydrothiazolo[5,4-c]pyridine-5(4H)-carboxamide]: the figures for the activity at 3 µM (in the experiment with m-IMCD3 cells; in experiment [1]) were -3% and 48%, respectively.
